Consider nine compounds from patent US6245817A, “NPY5 receptor antagonists and methods for using same” (Bayer Corporation, priority 1999, dated 2001).

For one assay, the target named is T1, Human NPY1 Receptor (Homo sapiens, UniProt P25929).
T1 sequence (P25929 1-384): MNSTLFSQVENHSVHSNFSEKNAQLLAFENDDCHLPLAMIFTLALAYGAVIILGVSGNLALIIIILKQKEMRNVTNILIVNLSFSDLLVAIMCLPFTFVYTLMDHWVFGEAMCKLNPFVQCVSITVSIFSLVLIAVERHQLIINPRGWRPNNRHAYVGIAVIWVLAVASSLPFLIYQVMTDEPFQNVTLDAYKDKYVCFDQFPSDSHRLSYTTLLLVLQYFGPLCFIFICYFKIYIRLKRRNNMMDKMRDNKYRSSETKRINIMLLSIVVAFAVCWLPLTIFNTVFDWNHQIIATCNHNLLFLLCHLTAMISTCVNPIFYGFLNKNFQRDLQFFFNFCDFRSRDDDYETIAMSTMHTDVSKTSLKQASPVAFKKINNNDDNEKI
The assay can be described thus: Human NPY1 Receptor Binding Assay. The following applies: SK-N-MC cells, [125I]PYY; read-out: hNPY1 IC50.

A further assay concerns the target T2, Human NPY2 receptor (Homo sapiens, UniProt P49146).
T2 sequence (P49146 1-381): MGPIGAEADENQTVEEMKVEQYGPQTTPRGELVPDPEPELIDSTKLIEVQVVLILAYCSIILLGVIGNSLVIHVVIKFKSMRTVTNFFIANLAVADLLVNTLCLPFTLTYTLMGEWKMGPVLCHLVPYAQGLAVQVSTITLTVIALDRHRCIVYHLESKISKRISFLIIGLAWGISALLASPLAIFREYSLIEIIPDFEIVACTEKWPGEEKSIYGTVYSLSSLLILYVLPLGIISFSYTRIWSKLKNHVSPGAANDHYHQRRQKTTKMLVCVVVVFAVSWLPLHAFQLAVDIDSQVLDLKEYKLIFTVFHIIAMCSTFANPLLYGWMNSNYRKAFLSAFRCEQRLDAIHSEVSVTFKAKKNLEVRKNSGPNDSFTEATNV
Nature of the assay: Human NPY2 Receptor Binding Assay. The settings on record: [125I]PYY; read-out: hPPY2 IC50.

A further assay addresses Human NPY4/PP1 receptor (Homo sapiens, UniProt P50391). The assay can be described thus: Human NPY4/PP1 Receptor Binding Assay. The following applies: [125I]human PP; read-out: hNPY4 IC50.
In another assay the target is T3, Human NPY5 Receptor (Homo sapiens, UniProt Q15761).
T3 sequence (Q15761 1-445): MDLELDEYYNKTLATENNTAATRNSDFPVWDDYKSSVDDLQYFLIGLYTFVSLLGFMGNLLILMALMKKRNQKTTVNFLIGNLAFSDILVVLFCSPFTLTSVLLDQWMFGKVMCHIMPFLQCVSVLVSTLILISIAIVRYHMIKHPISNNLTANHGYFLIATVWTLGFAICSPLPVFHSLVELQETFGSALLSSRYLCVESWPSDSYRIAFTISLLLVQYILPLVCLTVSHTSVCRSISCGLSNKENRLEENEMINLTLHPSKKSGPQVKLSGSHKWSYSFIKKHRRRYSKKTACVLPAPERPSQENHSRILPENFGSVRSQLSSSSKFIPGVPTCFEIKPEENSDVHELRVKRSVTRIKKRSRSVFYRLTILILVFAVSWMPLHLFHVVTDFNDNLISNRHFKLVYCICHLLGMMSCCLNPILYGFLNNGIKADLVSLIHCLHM
Nature of the assay: Human NPY5 Receptor Binding Assay. The settings on record: [125I]PYY; read-out: hNPY5 IC50.

The target in a further assay is T4, Rat NPY5 Receptor (Rattus norvegicus, UniProt Q63634).
T4 sequence (Q63634 1-445): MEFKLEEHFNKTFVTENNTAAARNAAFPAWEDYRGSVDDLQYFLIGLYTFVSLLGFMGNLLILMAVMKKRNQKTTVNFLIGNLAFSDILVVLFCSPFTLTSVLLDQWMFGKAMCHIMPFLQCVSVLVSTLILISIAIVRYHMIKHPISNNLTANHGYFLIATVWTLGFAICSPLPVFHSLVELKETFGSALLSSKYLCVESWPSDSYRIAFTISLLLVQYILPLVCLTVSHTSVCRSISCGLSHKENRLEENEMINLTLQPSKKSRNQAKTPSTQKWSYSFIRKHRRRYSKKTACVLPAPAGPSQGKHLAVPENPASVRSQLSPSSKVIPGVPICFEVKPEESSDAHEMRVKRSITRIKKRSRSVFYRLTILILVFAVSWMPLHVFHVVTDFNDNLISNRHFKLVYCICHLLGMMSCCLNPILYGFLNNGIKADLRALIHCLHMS
The assay can be described thus: Rat NPY5 Receptor Binding Assay. The settings on record: for IC50: [125I]PYY, read-out: rNPY5 IC50; for inhibition at 10 µM: values marked *, read-out: rNPY5 percent inhibition at 10 μM.

As a reminder, the IC50 is the concentration that inhibits the measured activity by half. By inhibition is commonly meant the change of the read-out against control, counted positive when it falls.

The structures appear in SMILES notation.

Human NPY4/PP1 receptor, sequence (P50391 whole entry): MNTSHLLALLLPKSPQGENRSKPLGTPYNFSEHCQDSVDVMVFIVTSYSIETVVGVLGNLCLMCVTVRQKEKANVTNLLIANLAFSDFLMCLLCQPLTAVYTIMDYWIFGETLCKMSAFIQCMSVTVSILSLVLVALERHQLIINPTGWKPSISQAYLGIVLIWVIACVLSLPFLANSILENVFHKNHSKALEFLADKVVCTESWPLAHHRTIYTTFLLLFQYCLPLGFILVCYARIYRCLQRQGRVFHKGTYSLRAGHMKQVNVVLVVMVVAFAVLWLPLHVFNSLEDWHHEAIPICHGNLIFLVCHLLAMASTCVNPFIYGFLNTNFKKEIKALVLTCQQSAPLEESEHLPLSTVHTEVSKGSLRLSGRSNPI
Procedure for Human NPY5 Receptor: Human and Rat NPY5 Receptor Binding Assays
Binding assays are performed on GF/C Millipore 96-well plates pretreated with 0.02% polyethylenimine. The binding buffer is 25 mM Tris, 120 mM NaCl, 5 mM KCl, 1.2 mM KH2 PO4, 2.5 mM CaCl2, 1.2 mM MgSO4, 0.1% BSA and 0.5 mg/ml bacitracin, pH 7.4. Samples consist of membrane protein, 75-100 pM [125I]PYY (porcine, NEN-DuPont) and drug dilution. Nonspecific binding is defined by 1 μM PYY. After a 2 hour incubation at room temperature with constant mixing, the samples are aspirated on a vacuum manifold, and rinsed with ice-cold binding buffer. The amount of radioactivity in each well is quantitated with either gamma counting or liquid scintillation. IC50 values, which correspond to 50% inhibition of specific binding, are determined with non-linear regression analysis.

`CN1CCN=C1SCC(=O)Nc1ccc(F)cc1` [Compound 146, N-(4-Fluoro-phenyl)-2-(1-methyl-4,5-dihydro-1H-imidazol-2-ylsulfanyl)-acetamide, reference compound]: the 50% inhibitory concentration (IC50) is over 5 µM on Human NPY1 Receptor; over 5 µM at Human NPY2 receptor; over 5 µM on Human NPY4/PP1 receptor; over 10 µM on Human NPY5 Receptor; over 10 µM on Rat NPY5 Receptor.

For `Cc1ccc(SCC(=O)Nc2cccc(C#N)c2)cc1` [Compound 151, N-(3-Cyano-phenyl)-2-p-tolylsulfanyl-acetamide, reference compound], the half-maximal inhibitory concentration (IC50) was over 5 µM at Human NPY1 Receptor; over 5 µM at Human NPY2 receptor; over 5 µM at Human NPY4/PP1 receptor; 0.24 µM at Human NPY5 Receptor; 0.28 µM on Rat NPY5 Receptor.

Take `Cc1nc(-c2nnc(SCC(=O)Nc3ccc(Cl)cc3)n2C)cs1` [Compound 138, N-(4-Chloro-phenyl)-2-(4-methyl-5-(2-methyl-thiazolo-yl)-4H-[1,2,4]triazol-3-ylsulfanyl]-acetamide, reference compound]: the IC50 at Human NPY1 Receptor is over 5 µM; on Human NPY2 receptor it was over 5 µM; at Human NPY4/PP1 receptor, over 5 µM; on Human NPY5 Receptor, over 10 µM. Besides, at Rat NPY5 Receptor, the inhibition at 10 µM came out at 52%.

On to `CSc1ncc(-c2nnc(SCC(=O)Nc3ccc(Cl)cc3)n2C)n1C` [Compound 142, N-(4-Chloro-phenyl)-2-(4-methyl-5-(3-methyl-2-methylsulfanyl-3H-imidazol-4-yl)-4H-[1,2,4]triazol-3-ylsulfanyl]-acetamide, reference compound], for which the concentration for half-maximal inhibition (IC50) on Human NPY1 Receptor was over 5 µM; on Human NPY2 receptor, over 5 µM; at Human NPY4/PP1 receptor, over 5 µM; at Human NPY5 Receptor, over 10 µM; at Rat NPY5 Receptor it was over 10 µM.

Turning to `Cn1c(CN2C(=O)CSc3ccc(C(F)(F)F)cc32)nnc1SCC(=O)Nc1ccccc1` [Compound 152, 2-[4-Methyl-5-(3-oxo-6-trifluornmethyl-2,3-dihydro-benzo[1,4]thiazin-4-ylmethyl)-4H-[1,2,4]triazol-3-ylsulfanyl]-N-phenyl-acetamide, reference compound], the IC50 on Human NPY1 Receptor is over 5 µM; on Human NPY2 receptor, over 5 µM; at Human NPY4/PP1 receptor, over 5 µM; on Human NPY5 Receptor it was over 10 µM; on Rat NPY5 Receptor, over 10 µM.

As to `Cn1ccnc1SCC(=O)Nc1ccc(-c2ccccc2)cc1` [Compound 1, N-Biphenyl-4yl-2-(1-methyl-1H-imidazol-2-ylsulfanyl)-acetamide], the IC50 on Human NPY1 Receptor is over 5 µM; on Human NPY2 receptor it was over 10 µM; at Human NPY4/PP1 receptor, over 5 µM; at Human NPY5 Receptor, 0.64 µM. Further, at Rat NPY5 Receptor, the inhibition at 10 µM is 95%.

In the case of `Cn1nnnc1SCC(=O)Nc1ccc(OC(F)(F)F)cc1` [Compound 144, 2-(1-Methyl-1H-tetrazol-5-ylsulfanyl)-N-(4-trifluoromethoxy-phenyl)-acetamide, reference compound], the IC50 on Human NPY1 Receptor is over 5 µM; on Human NPY2 receptor it was over 5 µM; on Human NPY4/PP1 receptor, over 5 µM; at Human NPY5 Receptor, 1.2 µM; on Rat NPY5 Receptor, 1.4 µM.

As to `Cn1c(-c2ccc(Cl)cc2)cnc1SCC(=O)Nc1ccc(Cl)cc1` [Compound 154, N-(4-Chloro-phenyl)-2-[5-(4-chloro-phenyl)-1-methyl-1H-imidazol-2-ylsulfanyl]-acetamide, reference compound], the concentration for half-maximal inhibition (IC50) is over 5 µM at Human NPY1 Receptor; over 5 µM on Human NPY2 receptor; over 5 µM at Human NPY4/PP1 receptor; over 10 µM on Human NPY5 Receptor; 10 µM at Rat NPY5 Receptor.

Regarding `CCn1c(SCC(=O)Nc2ccc(Cl)cc2)nc2ccccc21` [Compound 140, N-(4-Chloro-phenyl)-2-(1-ethyl-1H-berzoimidazol-2-ylsulfanyl)-acetamide, reference compound], the half-inhibitory concentration (IC50) at Human NPY1 Receptor was over 5 µM; on Human NPY2 receptor it was over 5 µM; at Human NPY4/PP1 receptor, over 5 µM; on Human NPY5 Receptor it was over 10 µM. Besides, the inhibition at 10 µM at Rat NPY5 Receptor turned out to be 61%.
